# Assay results: PMC10318527, “Utilization of dietary mixed-linkage β-glucans by the Firmicute Blautia producta” (The Journal of Biological Chemistry, 2023)
# Where two headings read alike, the source gives them in different places.
# What was measured:
# BpGH16MLG (BPGH16) = assay: Michaelis-Menten kinetics of BpGH16MLG on β-glucans (DNS assay); type: biochemical, Blautia producta ATCC 27340; settings: native BPGH16; DNS assay; pH 5.7, 37 °C
# Method: Then, reactions were terminated by boiling for 5 min. Enzymatic assays were determined with 3,5- dinitrosalicylic acid (DNS) assay ([85]). In brief, 0.05 g Na2SO3 and 1 g DNS were mixed in a 50 ml water-containing reagent bottle and stirred about 6 h using a magnetic stirrer. After that, 200 μl phenol was added and made up to 100 ml. A working solution of DNS was prepared by adding 50 μl glucose (20% (w/v) stock) in prepared 100 ml of reagent mixtures and immediately used for experiments without adding NaOH. 80 μl DNS reagent was added to the reaction mixtures and incubated at 100 °C for 10 min, followed by ice-cooling for 10 min. Consequently, recorded the developed color spectrophotometrically at 575 nm ([85]). A standard curve generated by different concentrations of maltose was used for determining released reducing sugars in each case.
# BpGH16MLG = assay: Initial screening of BpGH16MLG against substrates (TLC); type: biochemical, Blautia producta ATCC 27340; settings: pH 5.7, 37 °C, 2 h
# Method: After the appropriate incubation time, the reaction was terminated by boiling (5 min), and generated oligosaccharides were analyzed by thin layer chromatography (TLC). Typically, 1 μl of the reaction mixture was used for TLC analysis. TLC analysis was performed on Silica Gel 60 F254 (Merck), and produced sugars were visualized by spraying TLC with 5% H2SO4 in ethanol, followed by heating.
# B. producta ATCC 27340 [1] = tested on: B. producta ATCC 27340; parameters: method as in PMID 33043794; settings: cited from earlier work
# [2] = molecular target: β-mannooligosaccharide binding protein of Roseburia; parameters: method as in PMID 30796211; settings: cited from earlier work
# BpSBPMLG = BpSBPMLG (Blautia producta, UniProt A0ABX6JB09); assay: Isothermal titration calorimetry of oligosaccharide binding to BpSBPMLG; parameters: species or system Blautia producta ATCC 27340; settings: for -TΔS^0 / n (binding stoichiometry) / ΔG^0 / ΔH: ITC at 25 °C, 10 mM sodium phosphate pH 7.0
# Sequence of BpSBPMLG (A0ABX6JB09 entry or part of it): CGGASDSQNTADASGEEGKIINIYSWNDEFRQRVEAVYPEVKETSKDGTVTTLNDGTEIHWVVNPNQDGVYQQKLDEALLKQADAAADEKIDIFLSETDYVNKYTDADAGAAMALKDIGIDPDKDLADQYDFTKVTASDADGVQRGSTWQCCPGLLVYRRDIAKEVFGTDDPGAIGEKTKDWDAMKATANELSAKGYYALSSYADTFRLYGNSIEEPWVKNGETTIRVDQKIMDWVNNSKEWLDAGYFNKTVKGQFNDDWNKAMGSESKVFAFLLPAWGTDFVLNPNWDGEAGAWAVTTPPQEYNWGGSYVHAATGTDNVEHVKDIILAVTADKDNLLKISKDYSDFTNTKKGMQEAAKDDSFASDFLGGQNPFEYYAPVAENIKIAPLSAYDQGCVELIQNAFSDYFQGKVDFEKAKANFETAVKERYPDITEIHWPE
# Method: The binding of β-(1,4), β-(1,3), and MLG-oligosaccharides to BpSBPMLG was measured at 25 °C in 10 mM sodium phosphate buffer (pH 7) using a MicroCal PEAQ-ITC (Malvern). The protein was extensively dialyzed against 10 mM sodium phosphate and all glycan ligands were also dissolved in the same buffer to minimize the heat of dilution. 13 injections of an oligosaccharide were titrated on BpSBPMLG present in the sample cell. Various preliminary titration setups were tried by changing amounts of protein (5–100 μM) and ligand (50 μM–10 mM) to get the best experimental conditions. Thermodynamic binding parameters [calculates binding affinity (Kd), stoichiometry (n), enthalpy (ΔH), Gibbs free energy change (ΔG), and entropy (ΔS)] were determined using the MicroCal PEAQ-ITC analysis software.
# BpGH94MLG [3] = molecular target: T1, BpGH94MLG (Blautia producta, UniProt A0A7G5MNS2); assay: Phosphorolysis activity of BpGH94MLG on substrates (TLC); type: biochemical, Blautia producta ATCC 27340; settings: inorganic phosphate, 37 °C
# T1 sequence (A0A7G5MNS2 1-804): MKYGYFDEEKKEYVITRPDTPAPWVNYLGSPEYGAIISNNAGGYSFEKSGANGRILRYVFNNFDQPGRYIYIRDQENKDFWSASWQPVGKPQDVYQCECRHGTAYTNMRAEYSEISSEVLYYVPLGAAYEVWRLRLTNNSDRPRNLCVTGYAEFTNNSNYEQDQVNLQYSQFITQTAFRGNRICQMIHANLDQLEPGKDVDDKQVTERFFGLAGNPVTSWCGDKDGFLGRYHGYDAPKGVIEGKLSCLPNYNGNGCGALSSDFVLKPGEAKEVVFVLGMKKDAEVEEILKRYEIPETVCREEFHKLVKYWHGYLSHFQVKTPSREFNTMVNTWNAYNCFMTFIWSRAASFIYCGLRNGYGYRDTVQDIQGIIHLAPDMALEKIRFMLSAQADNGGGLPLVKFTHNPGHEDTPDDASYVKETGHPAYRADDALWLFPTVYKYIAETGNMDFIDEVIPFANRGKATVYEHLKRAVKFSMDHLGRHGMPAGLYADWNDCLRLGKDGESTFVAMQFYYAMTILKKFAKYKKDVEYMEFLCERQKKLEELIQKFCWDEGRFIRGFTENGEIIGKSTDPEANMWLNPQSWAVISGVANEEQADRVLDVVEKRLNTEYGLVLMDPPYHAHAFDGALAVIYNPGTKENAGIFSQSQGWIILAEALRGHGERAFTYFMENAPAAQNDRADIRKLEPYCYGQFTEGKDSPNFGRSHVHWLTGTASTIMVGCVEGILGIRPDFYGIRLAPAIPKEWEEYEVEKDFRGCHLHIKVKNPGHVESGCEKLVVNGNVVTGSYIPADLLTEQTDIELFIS
# Method: (§1) TLC was used for analyzing enzymatic actions. […] Kinetics parameters for BpGH94MLG were determined with G4G3G, G4G4G3G and cellotriose, following a p-hydroxybenzoic acid hydrazide (PAHBAH) reducing sugar assay ([69]).
# BpGH3-AR8MLG = BpGH3-AR8MLG (Blautia producta, UniProt A0ABX6J8C8); type: biochemical, Blautia producta ATCC 27340
# Sequence of BpGH3-AR8MLG (A0ABX6J8C8 entry or part of it): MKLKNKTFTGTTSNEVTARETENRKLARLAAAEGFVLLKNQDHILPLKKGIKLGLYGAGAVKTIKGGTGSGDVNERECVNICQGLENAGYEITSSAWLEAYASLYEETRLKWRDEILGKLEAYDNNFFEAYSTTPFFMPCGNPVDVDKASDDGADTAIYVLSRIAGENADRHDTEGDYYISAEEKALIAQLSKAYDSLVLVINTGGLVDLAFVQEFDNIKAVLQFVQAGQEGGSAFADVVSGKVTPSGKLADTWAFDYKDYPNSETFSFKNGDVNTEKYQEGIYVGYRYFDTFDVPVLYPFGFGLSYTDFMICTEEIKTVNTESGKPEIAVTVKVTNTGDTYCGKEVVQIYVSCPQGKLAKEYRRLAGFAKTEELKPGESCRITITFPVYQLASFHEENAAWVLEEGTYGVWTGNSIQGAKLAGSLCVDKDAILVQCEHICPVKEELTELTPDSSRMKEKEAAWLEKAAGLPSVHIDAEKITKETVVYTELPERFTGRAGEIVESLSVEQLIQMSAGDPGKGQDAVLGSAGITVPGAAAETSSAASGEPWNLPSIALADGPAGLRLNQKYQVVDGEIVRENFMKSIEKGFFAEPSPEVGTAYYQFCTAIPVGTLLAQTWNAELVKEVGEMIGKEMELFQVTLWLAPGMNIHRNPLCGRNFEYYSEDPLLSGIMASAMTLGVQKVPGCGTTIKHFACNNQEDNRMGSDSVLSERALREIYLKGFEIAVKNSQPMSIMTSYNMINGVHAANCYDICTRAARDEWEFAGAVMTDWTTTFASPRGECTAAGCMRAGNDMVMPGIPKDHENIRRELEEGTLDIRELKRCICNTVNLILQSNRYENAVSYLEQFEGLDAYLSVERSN
# Method: (§2) 150 μl of a freshly prepared 8:2 mixture of reagent A (50 mM sodium sulfite, 0.3 M 4-hydroxybenzhydrazide and 0.6 M HCl) and reagent B (50 mM trisodium citrate, 10 mM CaCl2, 0.5 M NaOH) were added to 50 μl sample. The reaction cocktail was boiled for 10 min at 100 °C. After the reaction was cooled down, the absorbance was recorded at 410 nm using the SpectraMax i3x multi-mode microplate reader. A calibration curve with different concentrations of glucose (0, 2, 4, 8, 16, 40, 80, 100, 200, 300, and 500 μM) was employed for each experiment to calculate the released amount of glucose (reducing end equivalents). The same samples were also used for control measurement, and the control value was subtracted from test reading prior to calculate kinetics parameters. In all cases, the Km, Vmax, and kcat were analyzed on GraphPad Prism. Three independent replicates were used for each test. TLC analyses were used for understanding the enzymatic degradation profiles of various oligosaccharides.
# TaCDP = tested on: TaCDP; parameters: method as in PMID 28687766; settings: phosphorolytic reaction; cited from earlier work
# Rt/CtCDP = tested on: Rt/CtCDP; parameters: method as in PMID 12153715; settings: phosphorolytic reaction; cited from earlier work
# RaCDP = tested on: RaCDP; parameters: method as in PMID 23802549; settings: phosphorolytic reaction; cited from earlier work
# BpGH94MLG [4] = molecular target: T1, BpGH94MLG; assay: Phosphorolysis kinetics of BpGH94MLG (PAHBAH assay); type: biochemical, Blautia producta ATCC 27340
# Method: as §1
# BpGH3-X62MLG = molecular target: T2, BpGH3-X62MLG (Blautia producta, UniProt A0ABX6JIM0); assay: Hydrolysis kinetics of BpGH3-X62MLG (PAHBAH assay, TLC); settings: TLC
# T2 sequence (A0ABX6JIM0 1-920): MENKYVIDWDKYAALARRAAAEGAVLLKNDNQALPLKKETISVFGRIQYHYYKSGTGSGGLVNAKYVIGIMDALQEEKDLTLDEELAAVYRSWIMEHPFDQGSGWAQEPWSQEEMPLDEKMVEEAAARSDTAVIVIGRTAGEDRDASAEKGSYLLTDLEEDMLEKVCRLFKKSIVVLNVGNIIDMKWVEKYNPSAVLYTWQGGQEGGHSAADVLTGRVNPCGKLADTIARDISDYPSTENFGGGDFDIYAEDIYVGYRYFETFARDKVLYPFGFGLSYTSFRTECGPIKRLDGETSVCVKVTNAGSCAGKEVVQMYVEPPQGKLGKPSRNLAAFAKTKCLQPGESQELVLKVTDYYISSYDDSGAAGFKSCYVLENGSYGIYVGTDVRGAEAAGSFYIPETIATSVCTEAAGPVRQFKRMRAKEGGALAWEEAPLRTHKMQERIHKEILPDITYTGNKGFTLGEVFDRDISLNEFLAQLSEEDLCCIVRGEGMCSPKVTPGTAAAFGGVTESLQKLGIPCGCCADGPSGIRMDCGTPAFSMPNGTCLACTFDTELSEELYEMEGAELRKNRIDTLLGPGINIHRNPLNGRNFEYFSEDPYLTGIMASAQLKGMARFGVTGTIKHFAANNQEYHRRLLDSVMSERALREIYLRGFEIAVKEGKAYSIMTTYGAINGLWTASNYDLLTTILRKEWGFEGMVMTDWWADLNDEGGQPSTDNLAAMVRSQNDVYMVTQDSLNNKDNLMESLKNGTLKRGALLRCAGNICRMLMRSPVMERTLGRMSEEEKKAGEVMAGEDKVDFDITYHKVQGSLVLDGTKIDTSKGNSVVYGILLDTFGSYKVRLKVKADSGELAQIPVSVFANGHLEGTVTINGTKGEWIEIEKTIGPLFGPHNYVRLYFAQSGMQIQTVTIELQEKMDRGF
# Method: as §2
# B. producta ATCC 27340 [5] = assay: Growth of B. producta on β-glucans; type: cell-based, Blautia producta ATCC 27340; settings: minimal medium containing 1% glucan
# Method: Active culture of B. producta and culture conditions were maintained following the recently reported procedure ([31]). Once B. producta grew, cells were centrifuged, and the obtained supernatant was decanted. A pellet of cells was then washed three times with phosphate-buffered saline (PBS) and washed cells were suspended in 2 ml PBS. […] The growth assessment experiments were performed for 96 h, following our recently established protocol ([82]).
# [6] = PAHBAH assay, 100 mM HEPES pH 6.5, 37 °C
compound,measurement,setting,value
Laminarin,Km,BpGH16MLG (BPGH16),0.24 ± 0.03 mg/mL
same,kcat,BpGH16MLG (BPGH16),43 ± 0.6 s⁻¹
same,activity of BpGH16MLG on substrate (initial screening),BpGH16MLG,did cleave
same,growth of B. producta on the glucan,B. producta ATCC 27340 [1],does not support the growth
OC[C@H]1O[C@@H](O[C@H]2[C@H](O)[C@H](O)[C@H](O[C@H]3[C@H](O)[C@H](O)[C@H](O[C@H]4[C@H](O)[C@H](O)C(O)O[C@@H]4CO)O[C@@H]3CO)O[C@@H]2CO)[C@@H](O)[C@@H](O)[C@@H]1O (stereo partly drawn) [mannotetraose],Kd,[2],3890 nM
OC[C@H]1O[C@@H](O[C@H]2[C@H](O)[C@@H](O)[C@H](O[C@H]3[C@H](O)[C@@H](O)C(O)O[C@@H]3CO)O[C@@H]2CO)[C@H](O)[C@@H](O)[C@@H]1O (stereo partly drawn) [Cellotriose],activity of BpGH16MLG on substrate (initial screening),BpGH16MLG,did not show activity
same,Kd,BpSBPMLG,1740 nM
same,-TΔS^0,BpSBPMLG,0.8 kcal/mol
same,n (binding stoichiometry),BpSBPMLG,0.77 ± 0.02
same,ΔG^0,BpSBPMLG,-7.9 kcal/mol
same,ΔH,BpSBPMLG,-7.1 ± 0.31 kcal/mol
same,phosphorolysis activity of BpGH94MLG (in words),BpGH94MLG [3],cleaved
same,Km,BpGH3-AR8MLG; [6],260 ± 30 µM
same,kcat,BpGH3-AR8MLG; [6],15 ± 0.2 s⁻¹
same,Km,TaCDP,94 µM
same,kcat,TaCDP,0.28 s⁻¹
same,Km,Rt/CtCDP,810 µM
same,kcat,Rt/CtCDP,4 s⁻¹
same,Km,RaCDP,6060 µM
same,kcat,RaCDP,76.2 s⁻¹
"OC[C@H]1O[C@@H](O[C@H]2[C@H](O)[C@@H](O)[C@H](O[C@H]3[C@H](O)[C@@H](CO)OC(O)[C@@H]3O)O[C@@H]2CO)[C@H](O)[C@@H](O)[C@@H]1O (stereo partly drawn) [G4G3G, Glc-β-1-4-Glc-β-1-3-Glc]",Kd,BpSBPMLG,1010 nM
same,-TΔS^0,BpSBPMLG,4.4 kcal/mol
same,n (binding stoichiometry),BpSBPMLG,0.42 ± 0.01
same,ΔG^0,BpSBPMLG,-8.18 kcal/mol
same,ΔH,BpSBPMLG,-12.6 ± 0.32 kcal/mol
same,Km lower compared to cellotriose,BpGH94MLG [4],about 1.85 fold
same,phosphorolysis activity of BpGH94MLG (in words),BpGH94MLG [3],cleaved
same,cleavage by BpGH3-AR8MLG (in words),BpGH3-AR8MLG; TLC,cleaved
same,cleavage by BpGH3-X62MLG (in words),BpGH3-X62MLG,cleaved
Lichenan,Km,BpGH16MLG (BPGH16),0.13 ± 0.02 mg/mL
same,kcat,BpGH16MLG (BPGH16),36 ± 0.5 s⁻¹
same,activity of BpGH16MLG on substrate (initial screening),BpGH16MLG,did cleave
same,growth of B. producta on the glucan,B. producta ATCC 27340 [5],able to grow
